Data from the supplement of paper PMC6315032.

How the values were obtained:
Test in all cases: apparent dissociation constant (pKDapp, Kinobeads competition, Cheng-Prusoff corrected) (-log10 M); higher = tighter binding
Conditions in all cases: affinity matrix / lysate: Kinobeads, mixed HEK293/K-562/placenta lysate
CSNK1E = CSNK1E (UniProt P49674)
FGFR2 = FGFR2 (UniProt P21802)
PLK4 = PLK4 (UniProt O00444)
PRKG1 = PRKG1 (UniProt Q13976)
ABL2 = ABL2 (UniProt P42684)
MAPK3 = MAPK3 (UniProt P27361)
MAP2K4 = MAP2K4 (UniProt P45985)
PCTK1 = PCTK1 (UniProt Q00536)
ACVR2B = ACVR2B (UniProt Q13705)
DDR1 = DDR1 (UniProt Q08345)
EPHA4 = EPHA4 (UniProt P54764)
BCR = BCR (UniProt P11274)
CDK5 = CDK5 (UniProt Q00535)
HIPK3 = HIPK3 (UniProt Q9H422)
RIPK2 = RIPK2 (UniProt O43353)
MAPK9 = MAPK9 (UniProt P45984)
HIPK2 = HIPK2 (UniProt Q9H2X6)
SIK1 = SIK1 (UniProt P57059)
CAMK1 = CAMK1 (UniProt Q14012)
CSNK1G1 = CSNK1G1 (UniProt Q9HCP0)
DYRK1B = DYRK1B (UniProt Q9Y463)
DYRK2 = DYRK2 (UniProt Q92630)
BRD4 = BRD4 (UniProt O60885)
RIPK4 = RIPK4 (UniProt P57078)
WNK1 = WNK1 (UniProt Q9H4A3)
MAP3K10 = MAP3K10 (UniProt Q02779)
PRKACB = PRKACB (UniProt P22694)
MAPK10 = MAPK10 (UniProt P53779)
EIF2AK2 = EIF2AK2 (UniProt P19525)
ADCK4 = ADCK4 (UniProt Q96D53)
DDR2 = DDR2 (UniProt Q16832)
CDK9 = CDK9 (UniProt P50750)
TLK1 = TLK1 (UniProt Q9UKI8)
CAMK1D = CAMK1D (UniProt Q8IU85)

Measured: apparent dissociation constant (-log10 M)

Sequence of PLK4 (O00444 whole entry): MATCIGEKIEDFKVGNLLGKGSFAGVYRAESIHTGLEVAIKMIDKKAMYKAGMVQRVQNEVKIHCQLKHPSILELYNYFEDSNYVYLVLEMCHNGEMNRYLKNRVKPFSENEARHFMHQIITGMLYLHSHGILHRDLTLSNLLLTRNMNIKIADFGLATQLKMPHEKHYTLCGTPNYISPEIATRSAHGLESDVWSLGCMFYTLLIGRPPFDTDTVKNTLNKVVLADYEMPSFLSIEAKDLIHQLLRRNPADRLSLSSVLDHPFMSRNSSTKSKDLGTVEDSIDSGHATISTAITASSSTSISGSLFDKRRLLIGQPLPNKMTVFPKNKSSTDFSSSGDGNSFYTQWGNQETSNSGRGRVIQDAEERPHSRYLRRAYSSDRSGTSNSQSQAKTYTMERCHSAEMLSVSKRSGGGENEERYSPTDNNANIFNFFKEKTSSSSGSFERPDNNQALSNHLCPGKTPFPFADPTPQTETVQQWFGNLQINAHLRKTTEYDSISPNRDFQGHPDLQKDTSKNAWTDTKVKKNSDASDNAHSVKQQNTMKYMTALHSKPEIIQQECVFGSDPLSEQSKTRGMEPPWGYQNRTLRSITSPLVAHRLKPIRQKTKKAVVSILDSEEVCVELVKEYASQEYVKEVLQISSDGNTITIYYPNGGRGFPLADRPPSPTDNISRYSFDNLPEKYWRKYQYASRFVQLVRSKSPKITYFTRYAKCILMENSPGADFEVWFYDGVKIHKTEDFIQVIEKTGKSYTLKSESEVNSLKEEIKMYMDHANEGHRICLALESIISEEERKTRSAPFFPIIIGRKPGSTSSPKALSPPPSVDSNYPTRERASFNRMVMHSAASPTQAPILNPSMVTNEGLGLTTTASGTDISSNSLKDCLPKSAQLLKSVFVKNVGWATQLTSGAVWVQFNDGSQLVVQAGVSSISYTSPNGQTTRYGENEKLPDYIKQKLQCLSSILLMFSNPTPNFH
Sequence of HIPK2 (Q9H2X6 whole entry, looked up): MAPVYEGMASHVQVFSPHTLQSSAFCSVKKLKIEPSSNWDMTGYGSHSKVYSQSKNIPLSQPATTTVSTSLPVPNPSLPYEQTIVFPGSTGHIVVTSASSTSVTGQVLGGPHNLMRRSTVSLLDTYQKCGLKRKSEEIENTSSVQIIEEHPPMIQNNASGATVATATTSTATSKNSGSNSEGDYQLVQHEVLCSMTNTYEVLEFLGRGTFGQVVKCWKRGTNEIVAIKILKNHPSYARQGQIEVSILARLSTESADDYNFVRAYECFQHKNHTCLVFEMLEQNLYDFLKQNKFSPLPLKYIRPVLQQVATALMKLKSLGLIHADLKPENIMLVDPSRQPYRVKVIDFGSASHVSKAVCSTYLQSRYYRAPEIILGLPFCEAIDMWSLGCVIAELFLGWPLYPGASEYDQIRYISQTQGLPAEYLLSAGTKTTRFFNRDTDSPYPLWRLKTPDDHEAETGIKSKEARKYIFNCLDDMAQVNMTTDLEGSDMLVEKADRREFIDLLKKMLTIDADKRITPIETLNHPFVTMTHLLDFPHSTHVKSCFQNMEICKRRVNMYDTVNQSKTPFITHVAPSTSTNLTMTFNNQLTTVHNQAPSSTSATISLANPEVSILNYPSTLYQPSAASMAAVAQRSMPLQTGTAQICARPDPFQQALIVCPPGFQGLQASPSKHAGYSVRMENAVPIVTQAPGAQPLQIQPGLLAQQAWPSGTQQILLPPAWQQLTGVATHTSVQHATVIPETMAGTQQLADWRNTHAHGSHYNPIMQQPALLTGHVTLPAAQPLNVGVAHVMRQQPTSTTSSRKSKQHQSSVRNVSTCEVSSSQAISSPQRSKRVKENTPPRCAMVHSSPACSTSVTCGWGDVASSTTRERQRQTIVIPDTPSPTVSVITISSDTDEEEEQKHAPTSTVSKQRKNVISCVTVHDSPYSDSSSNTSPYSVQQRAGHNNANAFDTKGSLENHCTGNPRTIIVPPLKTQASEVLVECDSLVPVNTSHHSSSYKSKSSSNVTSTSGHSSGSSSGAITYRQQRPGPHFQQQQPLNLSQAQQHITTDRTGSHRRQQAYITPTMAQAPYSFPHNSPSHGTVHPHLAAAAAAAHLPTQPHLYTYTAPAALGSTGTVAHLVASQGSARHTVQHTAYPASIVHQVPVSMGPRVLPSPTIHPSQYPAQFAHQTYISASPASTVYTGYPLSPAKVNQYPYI
Sequence of FGFR2 (P21802 whole entry, looked up): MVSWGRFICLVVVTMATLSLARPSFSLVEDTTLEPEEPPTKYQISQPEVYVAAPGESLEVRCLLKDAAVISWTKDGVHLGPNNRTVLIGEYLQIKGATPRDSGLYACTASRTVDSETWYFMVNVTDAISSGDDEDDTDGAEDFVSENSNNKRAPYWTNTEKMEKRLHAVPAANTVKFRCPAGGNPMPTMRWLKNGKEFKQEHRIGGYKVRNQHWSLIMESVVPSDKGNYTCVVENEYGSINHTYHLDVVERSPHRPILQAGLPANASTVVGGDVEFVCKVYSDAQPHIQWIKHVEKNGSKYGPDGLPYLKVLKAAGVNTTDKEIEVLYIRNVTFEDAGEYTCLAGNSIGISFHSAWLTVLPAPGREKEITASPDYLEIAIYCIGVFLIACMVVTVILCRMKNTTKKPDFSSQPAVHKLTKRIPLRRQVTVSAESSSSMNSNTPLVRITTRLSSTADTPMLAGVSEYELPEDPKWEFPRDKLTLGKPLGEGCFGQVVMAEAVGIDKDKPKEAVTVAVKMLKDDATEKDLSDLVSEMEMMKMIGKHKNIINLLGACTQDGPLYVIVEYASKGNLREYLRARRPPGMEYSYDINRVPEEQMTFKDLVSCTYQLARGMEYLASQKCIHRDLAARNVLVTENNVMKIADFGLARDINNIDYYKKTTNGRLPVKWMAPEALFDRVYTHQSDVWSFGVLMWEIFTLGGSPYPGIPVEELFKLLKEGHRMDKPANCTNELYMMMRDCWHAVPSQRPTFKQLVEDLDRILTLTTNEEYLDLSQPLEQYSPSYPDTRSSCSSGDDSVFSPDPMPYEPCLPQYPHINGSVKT
Sequence of ABL2 (P42684 whole entry): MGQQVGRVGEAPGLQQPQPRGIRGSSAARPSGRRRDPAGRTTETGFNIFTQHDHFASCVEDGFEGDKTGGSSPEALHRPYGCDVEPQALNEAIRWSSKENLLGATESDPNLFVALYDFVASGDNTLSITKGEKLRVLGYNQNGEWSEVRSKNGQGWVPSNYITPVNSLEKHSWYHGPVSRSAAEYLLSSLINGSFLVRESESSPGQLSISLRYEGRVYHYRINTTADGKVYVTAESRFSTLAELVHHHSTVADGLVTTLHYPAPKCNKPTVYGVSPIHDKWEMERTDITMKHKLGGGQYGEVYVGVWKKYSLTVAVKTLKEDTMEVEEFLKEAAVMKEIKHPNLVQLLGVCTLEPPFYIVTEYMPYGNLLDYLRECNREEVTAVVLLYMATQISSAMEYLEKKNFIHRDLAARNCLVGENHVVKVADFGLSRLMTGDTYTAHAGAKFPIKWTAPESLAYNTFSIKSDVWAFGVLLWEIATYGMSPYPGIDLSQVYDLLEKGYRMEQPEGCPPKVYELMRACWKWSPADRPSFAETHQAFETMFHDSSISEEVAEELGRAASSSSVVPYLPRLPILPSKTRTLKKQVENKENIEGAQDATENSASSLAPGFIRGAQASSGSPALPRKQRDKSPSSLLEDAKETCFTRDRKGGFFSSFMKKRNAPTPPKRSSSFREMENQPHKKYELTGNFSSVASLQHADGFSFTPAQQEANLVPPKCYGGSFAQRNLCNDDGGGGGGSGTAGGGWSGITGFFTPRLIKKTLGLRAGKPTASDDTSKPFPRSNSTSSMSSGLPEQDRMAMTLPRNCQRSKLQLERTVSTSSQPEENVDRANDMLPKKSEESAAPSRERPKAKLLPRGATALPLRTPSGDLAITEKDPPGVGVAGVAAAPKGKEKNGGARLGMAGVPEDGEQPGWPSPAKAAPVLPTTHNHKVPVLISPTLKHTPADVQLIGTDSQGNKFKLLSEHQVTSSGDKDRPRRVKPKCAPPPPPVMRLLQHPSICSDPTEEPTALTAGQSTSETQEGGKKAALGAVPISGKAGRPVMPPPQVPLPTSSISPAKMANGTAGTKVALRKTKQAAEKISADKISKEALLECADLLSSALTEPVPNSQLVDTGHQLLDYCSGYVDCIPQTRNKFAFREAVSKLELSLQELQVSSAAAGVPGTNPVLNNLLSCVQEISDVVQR
Sequence of MAP2K4 (P45985 whole entry): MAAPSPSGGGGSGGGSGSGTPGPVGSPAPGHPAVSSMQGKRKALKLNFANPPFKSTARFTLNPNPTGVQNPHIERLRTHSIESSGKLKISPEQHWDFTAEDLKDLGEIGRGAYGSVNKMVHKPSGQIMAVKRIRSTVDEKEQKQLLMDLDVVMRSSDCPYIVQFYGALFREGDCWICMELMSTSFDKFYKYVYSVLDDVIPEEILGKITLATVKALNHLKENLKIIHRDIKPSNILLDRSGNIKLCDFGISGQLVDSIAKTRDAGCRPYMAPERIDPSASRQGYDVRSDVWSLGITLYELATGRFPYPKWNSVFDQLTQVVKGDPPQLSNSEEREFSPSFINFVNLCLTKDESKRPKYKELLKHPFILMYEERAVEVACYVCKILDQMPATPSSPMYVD
Sequence of MAPK3 (P27361 whole entry): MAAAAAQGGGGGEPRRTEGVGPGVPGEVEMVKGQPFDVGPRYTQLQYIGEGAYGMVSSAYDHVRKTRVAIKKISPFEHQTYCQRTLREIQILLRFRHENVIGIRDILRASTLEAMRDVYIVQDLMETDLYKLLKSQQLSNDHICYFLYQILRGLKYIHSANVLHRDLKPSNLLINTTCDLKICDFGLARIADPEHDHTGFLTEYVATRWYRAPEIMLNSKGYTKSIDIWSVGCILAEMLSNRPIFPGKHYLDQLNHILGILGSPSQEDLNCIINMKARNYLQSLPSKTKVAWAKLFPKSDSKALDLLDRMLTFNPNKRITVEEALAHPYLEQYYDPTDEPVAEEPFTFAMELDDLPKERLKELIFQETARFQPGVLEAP

COc1ccc(-c2ccc3c(N4CCOC[C@@H]4C)nc(N4CCOC[C@@H]4C)nc3n2)cc1CO [AZD8055]
< 6: CSNK1E | FGFR2 | PLK4 | PRKG1 | ABL2 | MAPK3 | MAP2K4 | PCTK1 | ACVR2B | DDR1 | EPHA4 | BCR | CDK5 | HIPK3 | RIPK2 | MAPK9 | HIPK2

CCNC(=O)Nc1ccc(-c2nc(N3CCOC[C@@H]3C)c3c(n2)C(C)(C)S(=O)(=O)C3)cc1 [CZ415]
< 6: all assays above
